According to the NIST ThermoML archive (doi:10.1021/je049787p):

Settings: 101.3 kPa, Liquid; for electrical conductivity: Alternating current cell with electrodes

C=CCn1cc[n+](C)c1.[Cl-] [1-allyl-3-methylimidazolium chloride]
Settings | electrical conductivity [S/m] | viscosity [mPa·s]
293.15 K | 0.00382 | 66
303.15 K | 0.0044 | 44.7
313.15 K | 0.00501 | 25.3
323.15 K | 0.00562 | 20.6
333.15 K | 0.00624 | 16.2
